The source of these data is paper PMC11653257, “Organometallic Half-Sandwich Complexes of 8-Hydroxyquinoline-Derived Mannich Bases with Enhanced Solubility: Targeting Multidrug Resistant Cancer” (Inorganic Chemistry, 2024).

Converted amounts (≈) assume the structure as drawn. Where two headings read alike, the source gives them in different places.

For data set [1], the system named is MES-SA/B1. Description: Cytotoxicity in triple coculture, MES-SA/B1 mOrange. It counts as cell-based, human. The method, then:
(§1) Cell lines were purchased from the American Type Culture Collection (ATCC). MES-SA/B1 is a human MDR1-transfected derivative of MES-SA, and MES-SA mCherry, MES-SA/B1 mOrange, and MES-SA/Dx5 eGFP were engineered to stably express the respective fluorescent proteins previously.[62] Cells were kept in culture medium (DMEM) supplemented with 10% fetal bovine serum, 2 mM L-glutamine, 100 units/mL penicillin, and 100 μg/mL streptomycin (Thermo Fisher). One week before use, MES-SA/Dx5 eGFP cells were treated with 0.5 μM doxorubicin to ensure ABCB1/P-gp expression.
(§2) The tested compounds were dissolved in 50% (v/v) DMSO/PBS’ buffer to prepare 5–10 mM stock solutions, which were diluted in complete culture medium. Constitutive expression of the fluorescent proteins allowed multiplexing in cytotoxicity experiments.[62] Cells were mixed before seeding in 384-well plates: in double cocultures, MES-SA mCherry and MES-SA/Dx5 eGFP cells were seeded at 1250–1250 cells/well (in total 2500 cells/well); while in triple cocultures, MES-SA mCherry, MES-SA/Dx5 eGFP and MES-SA/B1 mOrange cells were seeded at 800–800–800 cells/well (in total 2400 cells/well). Serial dilutions of the compounds were added 24 h after seeding. To address the effect of P-gp function, TQ was added at a nontoxic concentration (0.4 μM) 15 min before the test compounds. The intensity of the fluorescent proteins, which is proportional to cell mass, was measured after 144 h of incubation at the respective fluorescent channels (excitation/emission: eGFP: 485 nm/510 nm; mOrange: 545 nm/567 nm; mCherry: 585 nm/610 nm). pIC50 values were calculated by a custom program written by Judit Sessler in C#.[62] IC50 values and standard deviation were calculated from average pIC50 values from at least 3 independent measurements.

Data set [2] concerns Staphylococcus aureus (ATCC 25923). Description: Antibacterial MIC, S. aureus. It counts as cell-based. Conditions: Mueller Hinton Broth, 37 °C, 18 h. The method, then:
(§3) Escherichia coli (ATCC 25922) was used as Gram-negative strain and Staphylococcus aureus (ATCC 25923, methicillin-resistant (MRSA) ATCC 43300) strains were applied as Gram-positive bacterial cultures in the experiments. MIC values of the compounds were determined in 96-well plates based on the Clinical and Laboratory Standard Institute guidelines (CLSI guidelines).[76] The stock solutions of the compounds (same as those used for cytotoxicity experiments) were diluted in 100 μL of Mueller Hinton Broth. Then, 10^–4 dilution of an overnight bacterial culture in 100 μL of medium was added to each well, with the exception of the medium control wells.

Data set [3] can be described thus: Thermodynamic aqueous solubility at pH 7.4. Format: physicochemical. The following applies: 10 mM HEPES buffer, thermodynamic from solid, pH 7.4 (10 mM HEPES), 25.0 °C, read-out: thermodynamic aqueous solubility S7.4. The method, then:
The concentration of the compounds was determined by UV–vis spectrophotometry. For calibration, stock solutions of the compounds were used with known concentrations dissolved in 100% DMSO, 75% DMSO, and 50% (v/v) DMSO/buffered aqueous solutions.

Data set [4] has as its system Colo320. Description: Cytotoxicity, Colo320. It counts as cell-based, human. The following applies: this work. The source says:
Supplementary Information
(11 pictures or pasted objects on this page, not shown here)

The subject of data set [5] is MES-SA/Dx5. Description: Cytotoxicity in double coculture, MES-SA/Dx5 eGFP. Conditions: for IC50: read-out: IC50 MES-SA/Dx5; for SR = IC50 (MES-SA)/IC50 (MES-SA/Dx5): double coculture.
Procedure: Therefore, the novel half-sandwich complexes (1–4) and their corresponding ligands were tested against a coculture of MES-SA and MES-SA/Dx5 cells expressing the fluorescent proteins mCherry or eGFP, respectively.[62]
The tested compounds were dissolved in 50% (v/v) DMSO/PBS’ buffer to prepare 5–10 mM stock solutions, which were diluted in complete culture medium. Constitutive expression of the fluorescent proteins allowed multiplexing in cytotoxicity experiments.[62] […] Serial dilutions of the compounds were added 24 h after seeding. To address the effect of P-gp function, TQ was added at a nontoxic concentration (0.4 μM) 15 min before the test compounds. […] IC50 values and standard deviation were calculated from average pIC50 values from at least 3 independent measurements.
Data set [6] has as its target human serum albumin (HSA), site II (Homo sapiens, UniProt P02768). Description: HSA dansylglycine (DG) site marker displacement.
Procedure: (§4) Next, spectrofluorometric measurements were also performed to gain insight into the binding interactions that may occur in the hydrophobic binding sites of HSA. Tryptophan (Trp214) quenching experiments were conducted for the complexes (1–4) (for complex (3) see Figure S31) and their ligands). […] To monitor the binding at site II, site marker displacement experiments were performed using dansylglycine (DG).
(§5) Fluorescence measurements were carried out on a Fluoromax (Horiba Jobin Yvon, Longjumeau, France) spectrofluorometer using a 1 cm × 1 cm quartz cuvette. […] Excitation wavelengths were 295 nm for Trp-214 quenching and 340 nm for the DG displacement studies. The calculated conditional stability constants for HSA–complex species were obtained using the computer program HypSpec.[64] Calculations always were based on data obtained from at least two independent measurements.
Data set [7] deals with methicillin-resistant S. aureus (MRSA) ATCC 43300. Description: Antibacterial MIC, MRSA. Format: cell-based, Staphylococcus aureus. The following applies: Mueller Hinton Broth, 37 °C, 18 h. The method, then: as §3
Data set [8] deals with human serum albumin (HSA), Trp214 / site I (Homo sapiens, UniProt P02768). Description: HSA Trp214 fluorescence quenching.
Procedure: as §4, §5
Data set [9] concerns Escherichia coli (ATCC 25922). Description: Antibacterial MIC, E. coli. Conditions: Mueller Hinton Broth, 37 °C, 18 h. It counts as cell-based. The method, then: as §3
The subject of data set [10] is A431. More on the design: method as in earlier work. Conditions: monoculture, 72 h, PrestoBlue; ref SI3; cited from earlier work.
Data set [11] deals with MES-SA. Description: Cytotoxicity in double coculture, MES-SA mCherry. The following applies: 144 h, read-out: IC50 MES-SA.
Data set [12] deals with MES-SA/Dx5. The following applies: monoculture, ref SI3, cited from earlier work.
Data set [13] can be described thus: n-octanol/water distribution coefficient (shake-flask). The following applies: pH 7.4. It counts as physicochemical. The method, then: The exchange of the coligand (H2O/Cl^–) changes the overall charge of the complex, thus affecting lipophilicity. […] The traditional shake-flask method was used to obtain distribution coefficients of the ligands as well as of the complexes in n-octanol/buffered aqueous solution (20 mM phosphate, pH = 7.4) at different chloride ion concentrations (4, 24, and 100 mM) using UV–vis spectrophotometry (Agilent Cary 8454 diode array spectrophotometer, Santa Clara, CA, USA) for the analysis. The compounds were dissolved in buffered aqueous solutions previously saturated with n-octanol. Then the aqueous and n-octanol phases were gently mixed in different volume ratios (using 1:60 for the ligands, 1:1 for the RhCp* and 1:2 for the RuCym complexes ratios of n-octanol to buffered aqueous solution volume) for 4 h, followed by phase separation. Then the UV–vis spectrum of the aqueous or n-octanol phase was recorded and compared to the reference spectrum. Stock solutions were made in the aqueous phase, and distribution coefficients (DpH) were calculated by the following equation: [drawing 3]

For data set [14], the system named is MES-SA. Description: Cytotoxicity in triple coculture, MES-SA mCherry. It counts as cell-based, human. The following applies: MES-SA/B1, MES-SA/Dx5, 144 h. The method, then: as §1, §2
Data set [15] deals with MES-SA/Dx5. Description: Cytotoxicity in triple coculture, MES-SA/Dx5 eGFP. It counts as cell-based, human. The method, then:
as §1, §2

Sequence of human serum albumin (HSA), site II (P02768 25-609): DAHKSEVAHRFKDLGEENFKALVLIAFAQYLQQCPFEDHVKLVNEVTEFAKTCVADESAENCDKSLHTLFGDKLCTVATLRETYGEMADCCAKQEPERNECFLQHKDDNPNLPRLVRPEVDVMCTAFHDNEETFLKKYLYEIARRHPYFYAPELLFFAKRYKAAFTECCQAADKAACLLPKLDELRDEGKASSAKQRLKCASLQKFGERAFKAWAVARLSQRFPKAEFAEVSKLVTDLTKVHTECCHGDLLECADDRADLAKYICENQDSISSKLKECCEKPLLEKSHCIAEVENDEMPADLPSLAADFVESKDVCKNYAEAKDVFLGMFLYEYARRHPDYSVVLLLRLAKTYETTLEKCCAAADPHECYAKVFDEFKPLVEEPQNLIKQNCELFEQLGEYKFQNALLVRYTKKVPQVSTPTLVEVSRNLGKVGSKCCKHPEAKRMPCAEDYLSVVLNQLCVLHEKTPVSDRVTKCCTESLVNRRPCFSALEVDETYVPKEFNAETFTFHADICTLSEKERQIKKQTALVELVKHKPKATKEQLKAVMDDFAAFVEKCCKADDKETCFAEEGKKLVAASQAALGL
Sequence of human serum albumin (HSA), Trp214 / site I (P02768 25-609): as above

By MIC is commonly meant the least concentration at which growth counts as inhibited. In general, solubility (thermodynamic) refers to solubility found after equilibrating the solid with the medium. Broadly, the Kd is the constant that tells how readily two partners part at equilibrium. Consider `Oc1c(CN2CCCCC2)cc(Cl)c2cccnc12` [HQCl-pip, 5-chloro-7-(piperidin-1-ylmethyl)quinolin-8-ol], for which the IC50 in [1] (Homo sapiens, MES-SA/B1, 144 h) is 380 nM; in data set [5] (Homo sapiens, MES-SA/Dx5, 144 h) it was 90 nM; in data set [10] it was 6670 ± 1690 nM; in data set [11] (Homo sapiens, MES-SA), 1090 nM; in data set [12] (PrestoBlue) it was 290 ± 50 nM. Further, the MIC in data set [2] (Staphylococcus aureus, ATCC25923) amounted to 50 µM (≈ 13.8 µg/mL); in data set [7] (Staphylococcus aureus), 25 µM (≈ 6.92 µg/mL); in data set [9] (Escherichia coli, ATCC25922) it was 50 µM (≈ 13.8 µg/mL). The thermodynamic solubility in data set [3] came out at 254 ± 3 µM (≈ 70.3 µg/mL). In addition, the “SR (Colo205 / Colo320)” value in [4] was determined as 2.4. The Kd in data set [6] turned out to be 3980 nM; in [8], 7940 nM. The “SR (MES-SA / MES-SA/Dx5)” value was 1.31 in data set [12] (+ 1 µM TQ) and 8.71 in data set [12]. For the same compound, the logD at 4 h in data set [13] (n-octanol/buffered aqueous solution, n-octanol/H2O, read-out: log D7.4) turned out to be 2.54.
With [RhCp*(HQCl-Pip)Cl]Cl [(3)], the “SR B1 = IC50 (MES-SA)/IC50 (MES-SA/B1)” value in [1] was 2.9. Besides, the IC50 was found to be 740 nM in data set [1] (144 h); 220 nM in [5] (double coculture with MES-SA, 144 h, without TQ); 2110 nM in data set [14]; 2040 nM in data set [11] (double coculture with MES-SA/Dx5, without TQ); 190 nM in data set [15] (144 h). For the same compound, the MIC in [2] came out at 50 µM; in [7] it was 25 µM; in data set [9], 50 µM. In addition, the “SR = IC50 (MES-SA)/IC50 (MES-SA/Dx5)” value in data set [5] (+ 0.4 μM tariquidar (TQ)) is listed as 1.3; in data set [5] (without TQ), 9.1. In addition, the “logK’(DG)” value in [6] (cHSA = cDG = 1 μM, λEX = 335 nm (DG), pH 7.4 (PBS’), […], 24 h) was found to be 5.0 ± 0.1. For the same compound, the “logK’(quenching)” value in data set [8] (1 μM HSA, λEX = 295 nm (Trp-214), pH 7.4 (PBS’), […], 24 h) is 5.1 ± 0.1. Further, the “SR Dx5 = IC50 (MES-SA)/IC50 (MES-SA/Dx5)” value in data set [15] is on record as 11.1. Moreover, the logD7.4 result in data set [13] (c(Cl–) = 4 mM) is reported as “+0.34 ± 0.01”; in data set [13] (c(Cl–) = 24 mM), “+0.58 ± 0.01”; in data set [13] (c(Cl–) = 100 mM) it was “+0.60 ± 0.01”.
